Consider eight compounds from ChEMBL document CHEMBL1201862, “PubChem BioAssay data set” (2004).

Calls of active or inactive are those of the source. A value given as a limit tells only on which side of the number the result lay.

The nature of experiment [1]: HPDE-C7 pancreatic duct cell viability loss – fluorescence, HTS (AID 430). As to conditions: Homo sapiens. Format: functional, cell-based.
Experiment [2] can be described thus: viability loss of HPDE-C7K cells – cell-based, fluorescence, HTS, primary screen (AID 431). The format is functional. As to conditions: Homo sapiens.
The nature of experiment [3]: Trypanosoma cruzi growth suppression in host cells – NIH3T3 host cells, beta-gal luminescence, confirmation (AID 2044).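 Note: intracellular parasites grown in NIH/3T3 mouse fibroblasts as host cells; luminescent beta-galactosidase reporter signal from transgenic T. cruzi replicating inside host cells; inhibitors lower the luminescence signal.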 The format is functional, cell-based.
Experiment [4] can be described thus: NIH3T3 cell viability loss – ATP luminescence, mouse fibroblasts, counter-screen, dose response (AID 2010).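 Note: cells exposed to compound for about 90 hours before reading.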 Format: functional, cell-based. (In general: A counterscreen serves to expose hits that act by an unwanted route or on another target.)
For experiment [5], the target named is Sphingosine 1-phosphate receptor 2 (Homo sapiens, UniProt O95136). As to the kind of experiment: Dose Response Cell Based Assay for Agonists of the S1P2 Receptor of Purchased Analogues. [Related pubchem assays: 729, 843, 854, 736 ]. The format is functional.
Another experiment addresses Protein Tat (Human immunodeficiency virus type 1 group M subtype B (isolate HXB2)(HIV-1), UniProt P04608). The format is functional.
The target of experiment [6] is T1, Rac GTPase-activating protein 1 (Homo sapiens, UniProt Q9H0H5).
T1 sequence (Q9H0H5 whole entry): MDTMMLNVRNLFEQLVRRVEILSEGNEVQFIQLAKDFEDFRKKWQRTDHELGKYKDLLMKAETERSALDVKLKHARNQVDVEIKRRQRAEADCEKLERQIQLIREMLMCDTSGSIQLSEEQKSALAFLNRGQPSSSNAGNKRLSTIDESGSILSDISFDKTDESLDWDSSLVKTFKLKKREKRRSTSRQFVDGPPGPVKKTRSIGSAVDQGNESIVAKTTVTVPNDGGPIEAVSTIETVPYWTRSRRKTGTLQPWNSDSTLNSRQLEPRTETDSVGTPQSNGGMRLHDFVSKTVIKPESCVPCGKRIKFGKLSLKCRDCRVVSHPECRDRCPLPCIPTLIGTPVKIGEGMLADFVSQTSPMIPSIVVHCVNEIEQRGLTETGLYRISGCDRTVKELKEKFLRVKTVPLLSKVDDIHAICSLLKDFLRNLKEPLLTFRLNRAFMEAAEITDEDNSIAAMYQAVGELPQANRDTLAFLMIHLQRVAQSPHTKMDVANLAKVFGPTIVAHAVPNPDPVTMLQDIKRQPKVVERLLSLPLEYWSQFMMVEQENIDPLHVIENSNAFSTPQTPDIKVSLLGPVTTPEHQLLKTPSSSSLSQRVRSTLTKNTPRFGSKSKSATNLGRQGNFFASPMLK
As to the kind of experiment: blockers of MgcRacGAP-driven Rac1 GTP hydrolysis – biochemical, ADP Hunter fluorescence, primary and confirmatory, confirmation (AID 624330). Format: functional.

The target of experiment [7] is RNA-editing ligase 1, mitochondrial (Trypanosoma brucei brucei, UniProt P86926). The experiment in a line: inhibition of trypanosome RNA editing ligase – biochemical, fluorescence, Trypanosoma brucei, dose response (AID 1117295). The format is functional.
The target of experiment [8] is T2, DNA repair protein RAD52 homolog (Homo sapiens, UniProt P43351).
T2 sequence (P43351 whole entry): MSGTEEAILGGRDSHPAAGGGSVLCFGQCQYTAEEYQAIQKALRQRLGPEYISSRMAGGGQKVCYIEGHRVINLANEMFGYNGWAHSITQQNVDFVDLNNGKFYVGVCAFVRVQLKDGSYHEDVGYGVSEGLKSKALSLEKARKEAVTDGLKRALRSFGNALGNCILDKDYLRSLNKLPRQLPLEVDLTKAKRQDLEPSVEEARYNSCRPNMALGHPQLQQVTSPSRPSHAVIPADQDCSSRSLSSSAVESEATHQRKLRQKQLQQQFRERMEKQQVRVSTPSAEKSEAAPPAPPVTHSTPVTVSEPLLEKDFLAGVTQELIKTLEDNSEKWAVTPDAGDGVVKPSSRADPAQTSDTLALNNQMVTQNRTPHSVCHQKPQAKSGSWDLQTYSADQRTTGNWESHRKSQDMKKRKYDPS
The format is functional, biochemical.

The target of experiment [9] is T3, RNA-binding protein pos-1 (Caenorhabditis elegans, UniProt G5EF15).
T3 sequence (G5EF15 whole entry): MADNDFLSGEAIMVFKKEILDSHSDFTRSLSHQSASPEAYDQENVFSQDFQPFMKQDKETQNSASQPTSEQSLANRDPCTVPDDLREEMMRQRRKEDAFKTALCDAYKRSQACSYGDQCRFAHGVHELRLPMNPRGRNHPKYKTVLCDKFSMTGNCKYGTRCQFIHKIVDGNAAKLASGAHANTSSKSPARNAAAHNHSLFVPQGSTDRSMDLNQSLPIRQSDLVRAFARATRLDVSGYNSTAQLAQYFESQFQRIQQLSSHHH
As to the kind of experiment: disruptors of C. elegans POS-1 RNA interaction – biochemical, fluorescence polarization, dose response (AID 1964).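 Note: purified POS-1 fused to maltose binding protein made in E. coli; potency of compounds blocking POS-1 binding to fluorescent RNA.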 On the technique in general: Polarisation of emitted light reports the rotation of a fluorescent probe.

A further experiment has as its target Nonstructural protein 1 (Influenza A virus, UniProt Q194T2). Format: functional, Influenza A virus (A/California/07/2009(H1N1)).
A short description of experiment [10]: viability loss in HeLa cells – cytotoxicity control for MgcRacGAP inhibitor project, dose response (AID 624300). Format: functional.
The target of experiment [11] is T4, Zinc finger protein mex-5 (Caenorhabditis elegans, UniProt Q9XUB2).
T4 sequence (Q9XUB2 whole entry): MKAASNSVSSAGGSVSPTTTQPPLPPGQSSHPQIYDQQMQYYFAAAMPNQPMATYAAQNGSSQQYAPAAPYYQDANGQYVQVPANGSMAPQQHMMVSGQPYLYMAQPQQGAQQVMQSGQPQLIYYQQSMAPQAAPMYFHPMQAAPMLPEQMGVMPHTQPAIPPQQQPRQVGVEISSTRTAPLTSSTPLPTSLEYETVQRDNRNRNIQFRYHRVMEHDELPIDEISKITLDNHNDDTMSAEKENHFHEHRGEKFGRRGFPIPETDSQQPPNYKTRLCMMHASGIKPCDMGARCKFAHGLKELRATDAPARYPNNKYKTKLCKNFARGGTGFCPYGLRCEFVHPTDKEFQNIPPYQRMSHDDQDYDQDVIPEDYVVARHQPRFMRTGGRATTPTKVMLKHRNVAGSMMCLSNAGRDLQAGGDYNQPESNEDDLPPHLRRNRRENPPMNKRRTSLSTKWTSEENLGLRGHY
The experiment in a line: potency of MEX-5 RNA-binding blockers – biochemical, C. elegans, fluorescence polarization, dose response (AID 1960).

The target of experiment [12] is Peroxisome proliferator-activated receptor gamma/Nuclear receptor coactivator 1 (Homo sapiens, UniProt P37231). Format: functional.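 Note: agonist potency as compounds enhance coactivator SRC-1 recruitment to PPARgamma.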
The next experiment concerns the target T5, Estrogen receptor (Homo sapiens, UniProt P03372).
T5 sequence (P03372 whole entry): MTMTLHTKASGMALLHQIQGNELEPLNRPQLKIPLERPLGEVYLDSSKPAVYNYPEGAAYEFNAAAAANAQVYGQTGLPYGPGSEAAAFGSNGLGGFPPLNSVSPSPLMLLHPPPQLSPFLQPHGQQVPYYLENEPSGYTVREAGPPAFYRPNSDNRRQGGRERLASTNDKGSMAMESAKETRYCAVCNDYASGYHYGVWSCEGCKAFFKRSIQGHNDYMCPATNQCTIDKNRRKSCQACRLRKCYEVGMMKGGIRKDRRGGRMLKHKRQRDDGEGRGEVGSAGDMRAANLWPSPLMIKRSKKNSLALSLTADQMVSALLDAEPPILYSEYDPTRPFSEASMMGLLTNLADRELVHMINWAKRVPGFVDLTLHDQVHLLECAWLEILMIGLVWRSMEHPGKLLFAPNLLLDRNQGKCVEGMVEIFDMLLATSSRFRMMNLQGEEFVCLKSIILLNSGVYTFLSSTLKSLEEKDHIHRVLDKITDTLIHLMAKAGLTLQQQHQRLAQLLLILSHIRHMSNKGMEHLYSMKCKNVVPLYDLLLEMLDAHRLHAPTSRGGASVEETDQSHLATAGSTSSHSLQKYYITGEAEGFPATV
As to the kind of experiment: ERα coactivator recruitment enhancers – biochemical, TR-FRET, ERα LBD, dose response (AID 737). (In general: TR-FRET usually uses a lanthanide donor and a delayed reading to cut background.)

Experiment [13] concerns the target Peroxisome proliferator-activated receptor gamma/Nuclear receptor coactivator 2 (Homo sapiens, UniProt P37231). The format is functional.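 Note: agonist potency for raising coactivator recruitment to the receptor.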
Experiment [14] concerns the target Peroxisome proliferator-activated receptor gamma/Nuclear receptor coactivator 3 (Homo sapiens, UniProt P37231). The format is functional.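 Note: agonist potency for raising coactivator recruitment to the receptor.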
Experiment [15] in a line: growth inhibition of yeast DHODH-expressing 3D7 parasites – SYBR Green, dry powder samples, dose response (AID 1159570).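 Note: parasite growth measured after 72 hours of compound exposure.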 The format is functional, cell-based.
The nature of experiment [16]: Dd2 malaria parasite growth inhibition potency – SYBR Green, dry powder samples, dose response (AID 1159566).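 Note: potency for growth inhibition with lower SYBR green DNA signal.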 The format is functional, cell-based.
Experiment [17] can be described thus: growth inhibition of PfATP4-mutant resistant parasites – NITD609-resistant line, SYBR Green, dry powder, dose response (AID 1159571).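 Note: parasites synchronized at ring stage by sorbitol before testing.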 The format is functional, cell-based.
The nature of experiment [18]: P. falciparum Dd2 growth inhibitors, dose response, SYBR Green, cherry-picked samples (AID 1159567). Format: functional, cell-based.

Sphingosine 1-phosphate receptor 2, sequence (O95136 whole entry): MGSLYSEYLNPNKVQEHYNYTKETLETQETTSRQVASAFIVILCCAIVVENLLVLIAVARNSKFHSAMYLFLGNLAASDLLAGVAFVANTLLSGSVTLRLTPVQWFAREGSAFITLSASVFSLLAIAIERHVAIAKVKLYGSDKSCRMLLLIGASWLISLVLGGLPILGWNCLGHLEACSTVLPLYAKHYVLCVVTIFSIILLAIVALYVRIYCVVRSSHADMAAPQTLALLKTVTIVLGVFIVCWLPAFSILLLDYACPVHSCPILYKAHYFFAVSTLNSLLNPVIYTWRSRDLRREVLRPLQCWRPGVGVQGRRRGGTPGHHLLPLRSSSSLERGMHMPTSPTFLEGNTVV
Peroxisome proliferator-activated receptor gamma/Nuclear receptor coactivator 2, sequence (P37231 whole entry): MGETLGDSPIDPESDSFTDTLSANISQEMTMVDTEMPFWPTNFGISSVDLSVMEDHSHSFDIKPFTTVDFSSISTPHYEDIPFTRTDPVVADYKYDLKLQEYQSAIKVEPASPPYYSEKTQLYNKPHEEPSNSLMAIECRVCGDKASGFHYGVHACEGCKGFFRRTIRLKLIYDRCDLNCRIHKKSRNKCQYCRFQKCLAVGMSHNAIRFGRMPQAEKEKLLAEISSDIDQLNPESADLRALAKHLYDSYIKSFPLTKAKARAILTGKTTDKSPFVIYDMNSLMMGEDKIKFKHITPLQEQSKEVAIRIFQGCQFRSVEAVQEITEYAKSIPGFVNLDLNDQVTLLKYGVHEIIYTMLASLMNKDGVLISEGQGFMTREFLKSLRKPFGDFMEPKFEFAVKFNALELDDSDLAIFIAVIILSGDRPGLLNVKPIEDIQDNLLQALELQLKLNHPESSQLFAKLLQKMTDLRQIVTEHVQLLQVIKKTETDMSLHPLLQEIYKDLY
Peroxisome proliferator-activated receptor gamma/Nuclear receptor coactivator 2, sequence (Q15596 whole entry, further chain): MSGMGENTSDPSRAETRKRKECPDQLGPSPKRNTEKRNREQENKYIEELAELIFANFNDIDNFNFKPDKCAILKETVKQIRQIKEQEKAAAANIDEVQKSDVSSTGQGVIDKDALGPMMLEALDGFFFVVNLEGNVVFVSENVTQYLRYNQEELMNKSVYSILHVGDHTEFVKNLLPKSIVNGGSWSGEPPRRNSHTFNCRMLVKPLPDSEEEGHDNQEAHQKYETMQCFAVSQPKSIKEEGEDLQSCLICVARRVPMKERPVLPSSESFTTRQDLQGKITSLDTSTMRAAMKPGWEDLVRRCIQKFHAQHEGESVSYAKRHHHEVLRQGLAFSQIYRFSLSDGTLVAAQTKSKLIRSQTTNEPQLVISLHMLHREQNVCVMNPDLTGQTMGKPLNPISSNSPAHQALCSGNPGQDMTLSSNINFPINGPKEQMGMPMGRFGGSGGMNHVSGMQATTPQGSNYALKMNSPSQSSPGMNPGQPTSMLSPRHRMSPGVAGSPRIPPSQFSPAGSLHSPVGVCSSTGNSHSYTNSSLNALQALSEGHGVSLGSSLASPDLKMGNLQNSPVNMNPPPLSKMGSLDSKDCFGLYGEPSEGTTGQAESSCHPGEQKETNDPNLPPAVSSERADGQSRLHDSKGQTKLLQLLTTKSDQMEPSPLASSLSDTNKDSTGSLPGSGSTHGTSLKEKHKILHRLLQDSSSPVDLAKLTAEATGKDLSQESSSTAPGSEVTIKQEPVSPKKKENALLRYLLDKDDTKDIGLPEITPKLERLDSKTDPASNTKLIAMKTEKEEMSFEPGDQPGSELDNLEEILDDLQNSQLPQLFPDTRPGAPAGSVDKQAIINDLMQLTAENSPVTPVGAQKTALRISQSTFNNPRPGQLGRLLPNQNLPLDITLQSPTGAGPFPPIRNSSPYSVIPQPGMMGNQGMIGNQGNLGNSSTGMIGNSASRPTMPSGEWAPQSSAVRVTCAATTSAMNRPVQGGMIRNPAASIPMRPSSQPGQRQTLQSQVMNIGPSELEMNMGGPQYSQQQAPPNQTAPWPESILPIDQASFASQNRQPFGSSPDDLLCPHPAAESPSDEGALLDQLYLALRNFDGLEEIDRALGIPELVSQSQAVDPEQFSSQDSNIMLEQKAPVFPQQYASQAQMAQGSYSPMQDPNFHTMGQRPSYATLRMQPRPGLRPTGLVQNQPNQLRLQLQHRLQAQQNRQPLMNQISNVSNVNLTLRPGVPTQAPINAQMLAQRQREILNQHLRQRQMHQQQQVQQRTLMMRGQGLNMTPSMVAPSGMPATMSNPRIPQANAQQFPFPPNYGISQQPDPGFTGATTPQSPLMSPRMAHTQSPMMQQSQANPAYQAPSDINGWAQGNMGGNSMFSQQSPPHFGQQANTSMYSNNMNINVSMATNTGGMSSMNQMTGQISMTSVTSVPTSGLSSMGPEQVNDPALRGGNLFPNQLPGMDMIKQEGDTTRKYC
Peroxisome proliferator-activated receptor gamma/Nuclear receptor coactivator 3, sequence (P37231 whole entry): as the sequence (P37231 whole entry) above
Peroxisome proliferator-activated receptor gamma/Nuclear receptor coactivator 3, sequence (Q9Y6Q9 whole entry, further chain): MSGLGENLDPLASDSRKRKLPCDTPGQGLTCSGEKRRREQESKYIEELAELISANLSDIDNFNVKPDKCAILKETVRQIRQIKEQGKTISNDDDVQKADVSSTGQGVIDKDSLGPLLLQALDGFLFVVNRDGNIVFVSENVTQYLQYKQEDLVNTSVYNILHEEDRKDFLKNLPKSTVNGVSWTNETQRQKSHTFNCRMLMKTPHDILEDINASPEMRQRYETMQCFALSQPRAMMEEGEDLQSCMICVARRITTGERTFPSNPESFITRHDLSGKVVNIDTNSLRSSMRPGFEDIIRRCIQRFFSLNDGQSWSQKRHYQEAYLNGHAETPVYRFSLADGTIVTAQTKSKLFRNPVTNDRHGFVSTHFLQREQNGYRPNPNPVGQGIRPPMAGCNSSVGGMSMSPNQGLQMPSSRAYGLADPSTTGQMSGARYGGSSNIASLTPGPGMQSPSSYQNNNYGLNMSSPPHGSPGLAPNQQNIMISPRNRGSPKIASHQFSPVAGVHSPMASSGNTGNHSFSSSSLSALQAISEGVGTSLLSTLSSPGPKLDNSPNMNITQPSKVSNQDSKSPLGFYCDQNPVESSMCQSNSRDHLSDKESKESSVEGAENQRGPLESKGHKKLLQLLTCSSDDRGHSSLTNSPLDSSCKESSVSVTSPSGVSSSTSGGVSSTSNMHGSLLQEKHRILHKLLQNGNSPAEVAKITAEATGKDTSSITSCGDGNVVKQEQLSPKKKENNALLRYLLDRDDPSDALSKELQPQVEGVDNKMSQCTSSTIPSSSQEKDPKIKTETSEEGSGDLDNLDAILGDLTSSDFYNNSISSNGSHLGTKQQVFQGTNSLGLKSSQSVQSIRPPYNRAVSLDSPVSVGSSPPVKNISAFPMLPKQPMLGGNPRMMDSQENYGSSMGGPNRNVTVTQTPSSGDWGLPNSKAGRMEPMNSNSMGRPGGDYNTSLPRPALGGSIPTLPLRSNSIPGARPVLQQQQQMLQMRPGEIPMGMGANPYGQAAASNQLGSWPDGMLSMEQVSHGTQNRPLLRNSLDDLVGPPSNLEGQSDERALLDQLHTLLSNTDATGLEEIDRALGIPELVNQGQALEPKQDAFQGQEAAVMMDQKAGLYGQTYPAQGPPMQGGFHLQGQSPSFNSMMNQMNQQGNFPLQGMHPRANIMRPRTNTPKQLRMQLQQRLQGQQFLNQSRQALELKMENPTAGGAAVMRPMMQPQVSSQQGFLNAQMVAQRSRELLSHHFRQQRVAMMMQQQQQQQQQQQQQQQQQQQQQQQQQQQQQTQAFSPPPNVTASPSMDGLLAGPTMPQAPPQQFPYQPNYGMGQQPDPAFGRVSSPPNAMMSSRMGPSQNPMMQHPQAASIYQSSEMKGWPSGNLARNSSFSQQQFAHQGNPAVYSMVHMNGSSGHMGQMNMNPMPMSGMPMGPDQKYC
Protein Tat, sequence (P04608 whole entry): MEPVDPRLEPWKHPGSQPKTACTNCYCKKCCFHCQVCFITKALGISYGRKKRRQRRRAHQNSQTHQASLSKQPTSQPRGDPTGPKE
RNA-editing ligase 1, mitochondrial, sequence (P86926 whole entry): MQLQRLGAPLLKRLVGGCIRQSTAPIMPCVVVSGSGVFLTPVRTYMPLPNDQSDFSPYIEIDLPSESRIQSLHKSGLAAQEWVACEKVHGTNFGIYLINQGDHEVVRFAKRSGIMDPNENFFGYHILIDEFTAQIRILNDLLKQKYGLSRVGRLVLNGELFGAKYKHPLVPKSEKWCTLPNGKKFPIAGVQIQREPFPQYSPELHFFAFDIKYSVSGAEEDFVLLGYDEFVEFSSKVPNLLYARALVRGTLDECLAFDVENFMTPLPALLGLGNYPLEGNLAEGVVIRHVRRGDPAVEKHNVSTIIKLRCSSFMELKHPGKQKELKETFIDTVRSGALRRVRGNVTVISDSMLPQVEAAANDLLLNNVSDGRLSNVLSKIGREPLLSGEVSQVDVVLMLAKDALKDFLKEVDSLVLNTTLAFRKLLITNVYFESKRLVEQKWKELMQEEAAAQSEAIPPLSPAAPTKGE
Nonstructural protein 1, sequence (Q194T2 whole entry): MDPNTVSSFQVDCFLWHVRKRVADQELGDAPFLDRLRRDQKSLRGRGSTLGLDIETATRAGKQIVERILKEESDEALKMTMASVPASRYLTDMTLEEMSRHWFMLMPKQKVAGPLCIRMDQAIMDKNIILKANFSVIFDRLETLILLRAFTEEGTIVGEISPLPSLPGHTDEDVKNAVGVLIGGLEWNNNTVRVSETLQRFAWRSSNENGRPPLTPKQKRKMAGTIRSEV

By EC50 is commonly meant the concentration needed to bring the measured effect to its halfway point. On to `Cc1ccc(C(=O)OCC(=O)Nc2sc3c(c2C#N)CCCCC3)cc1NC(=O)c1ccco1`, for which the EC50 in experiment [1] and in experiment [2] was > 20 µM (not active) in each case.
`CCCCN(CC)CCNC(=O)c1nn(-c2ccc(OC)cc2)c(=O)c2c1c1ccccc1n2C`: the concentration giving a half-maximal response (EC50) in “cells” is 0.207 µM (active); in [3] it was < 0.1 µM (active); in experiment [4] it was > 60 µM (not active).
For the compound `Cc1cc(C(=O)CSc2nnc(C3CC3)n2C)c(C)n1Cc1ccccc1`, in experiment [5], the concentration giving a half-maximal response (EC50) was > 30 µM (not active).
Broadly, the IC50 is the concentration that gives 50% inhibition. As for `CC(C)(Oc1ccc(Cl)cc1)C(=O)NCc1ccco1`, at Protein Tat, the IC50 was > 100 µM (active).
By AC50 is commonly meant the midpoint of the concentration-response curve, whichever way the signal moves. In general, CC50 refers to the concentration giving 50% cytotoxicity. On to `Cn1c(N=Nc2ccc(N3CCOCC3)cc2)[n+](C)c2ccccc21`, for which the IC50 is 26 µM (active) in experiment [6], 34 µM (inactive) in experiment [7] and 8.01 µM (active) at Nonstructural protein 1. Moreover, the AC50 in [8] was 2.36 µM (active). Further, the EC50 in experiment [9] is > 300 µM (not active); in experiment [11] it was 219 µM (active). Also, the CC50 in [10] is 100 µM (active).
As for `Cc1cc(C(=O)CN2C(=O)NC3(CCOc4ccccc43)C2=O)c(C)n1Cc1ccccc1` (stereo not drawn), the EC50 in [5] is given as > 30 µM (not active).
For `COC(=O)c1ccc(COC(=O)c2ccc(S(=O)(=O)N3CCC(C)CC3)cc2)o1`, the concentration for a half-maximal effect (EC50) is recorded as > 79.4 µM (not active) in experiment [12], 12.6 µM (not active) at Estrogen receptor, > 79.4 µM (not active) in experiment [13] and > 79.4 µM (not active) in experiment [14].
For `CCS(=O)(=O)N1CCC2(CC1)CN(S(=O)(=O)c1ccc(C)cc1)[C@@H](CO)c1[nH]c3cc(OC)ccc3c12`, the AC50 was 1.04 µM (active) in experiment [15], 0.88 µM (active) in experiment [16], 0.738 µM (active) in experiment [17] and 1.3 µM (active) in experiment [18].
